Laboratory results reported in US10294202B2, “Pyrrolidinones as herbicides” (FMC Corporation, priority 2013, dated 2019).

Legend:
barnyardgrass = experiment: Test A pre-/postemergence herbicide test; format: in vivo, Echinochloa crus-galli
Outline: (§1)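 Visual injury ratings, 0 = no effect, 100 = complete control, taken ~10 days after treatment against untreated greenhouse controls. Preemergence: directed soil spray onto seeded loam/sand pots. Postemergence: spray onto plants at one- to two-leaf stage, 2–10 cm tall.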

kochia = experiment: Test A pre-/postemergence herbicide test; format: in vivo, Kochia scoparia
Outline: as §1

ragweed = experiment: Test A pre-/postemergence herbicide test; format: in vivo, Ambrosia elatior
Outline: as §1

ryegrass, Italian = experiment: Test A pre-/postemergence herbicide test; format: in vivo, Lolium multiflorum
Outline: as §1

giant foxtail = experiment: Test A pre-/postemergence herbicide test; format: in vivo, Setaria faberii
Outline: as §1

pigweed = experiment: Test A pre-/postemergence herbicide test; format: in vivo, Amaranthus retroflexus
Outline: as §1

wheat = experiment: Test A pre-/postemergence herbicide test; format: in vivo, Triticum aestivum; conditions: Postemergence; for Plant response rating, Wheat: 125 g ai/ha
Outline: as §1

corn = experiment: Test A pre-/postemergence herbicide test; format: in vivo, Zea mays; conditions: Postemergence
Outline: as §1

blackgrass = experiment: Test A postemergence herbicide test; format: in vivo, Alopecurus myosuroides
Outline: (§2)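 Potted in loam soil/sand blend; postemergence application at 1–2 leaf stage (2–10 cm). Greenhouse ~10 d. Visual injury vs untreated, 0–100 scale; 100 = complete control.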

galium = experiment: Test A postemergence herbicide test; format: in vivo, Galium aparine; conditions: for Plant response rating, Galium: 125 g ai/ha
Outline: as §2

[1] = 125 g ai/ha, visual rating, 0 to 100 scale, 0 no effect, 100 complete control, approximately 10 days, preemergence
[2] = Postemergence, 125 g ai/ha, 0 to 100 scale, 0 is no effect, 100 is complete control
[3] = preemergence, 500 g ai/ha, 0 to 100 scale, 0 is no effect and 100 is complete control
[4] = 0 to 100 scale, 0 is no effect, 100 is complete control
[5] = 125 g ai/ha, 0 to 100 scale, 0 is no effect, 100 is complete control
[6] = Postemergence, 125 g ai/ha, visual rating on 0 to 100 scale (0 no effect, 100 complete control), approx. 10 days
[7] = Postemergence, 500 g ai/ha, 0 to 100 scale (0 no effect, 100 complete control)
[8] = Preemergence, 125 g ai/ha, 0 to 100 scale where 0 is no effect and 100 is complete control
[9] = Preemergence, 500 g ai/ha, visual rating on 0 to 100 scale (0 no effect, 100 complete control)
[10] = visual rating on 0 to 100 scale (0 no effect, 100 complete control), approx. 10 days
[11] = 125 g ai/ha, visual rating on 0 to 100 scale (0 no effect, 100 complete control), approx. 10 days
[12] = 500 g ai/ha, 0 to 100 scale (0 no effect, 100 complete control)

With `Cc1cc(NC(=O)C2C(=O)NCC2c2cccc(C(F)(F)F)c2)ccc1F` (racemic) [Compound 185] the “Plant response rating, Barnyardgrass” value (barnyardgrass; [1]) was 40, the “Plant response rating, Barnyardgrass” value (barnyardgrass; [2]) was 40 and the “Barnyardgrass plant response rating (0 to 100 scale, 0 is no effect, 100 is complete control)” value (barnyardgrass; Postemergence, 500 g ai/ha) was 80. For the same molecule, the “Plant response rating, Barnyardgrass” value (barnyardgrass; [3]) was 70, the “Plant response rating, Kochia” value (kochia; [1]) was 0 and the “Plant response rating, Kochia” value (kochia; [2]) was 0. The “Kochia plant response rating (0 to 100 scale, 0 is no effect, 100 is complete control)” value (kochia; Postemergence, 500 g ai/ha) was 0, the “Plant response rating, Kochia” value (kochia; [3]) was 40 and the “Plant response rating, Ragweed” value (ragweed; [1]) was 0. For the same molecule, the “Plant response rating, Ragweed” value (ragweed; [2]) was 0, the “Ragweed plant response rating (0 to 100 scale, 0 is no effect, 100 is complete control)” value (ragweed; Postemergence, 500 g ai/ha) was 0 and the “Plant response rating, Ragweed” value (ragweed; [3]) was 0. The “Plant response rating, Ryegrass, Italian” value (ryegrass, Italian; [1]) was 0, the “Plant response rating, Ryegrass, Italian” value (ryegrass, Italian; [2]) was 0 and the “Ryegrass, Italian plant response rating (0 to 100 scale, 0 is no effect, 100 is complete control)” value (ryegrass, Italian; Postemergence, 500 g ai/ha) was 0. For the same molecule, the “Plant response rating, Ryegrass, Italian” value (ryegrass, Italian; [3]) was 20, the “Plant response rating, Foxtail, Giant” value (giant foxtail; [1]) was 70 and the “Plant response rating, Foxtail, Giant” value (giant foxtail; [2]) was 20. For the same molecule, the “Foxtail, Giant plant response rating (0 to 100 scale, 0 is no effect, 100 is complete control)” value (giant foxtail; Postemergence, 500 g ai/ha) was 80, the “Plant response rating, Foxtail, Giant” value (giant foxtail; [3]) was 90 and the “Plant response rating, Pigweed” value (pigweed; [1]) was 0. The “Plant response rating, Pigweed” value (pigweed; [2]) was 0, the “Pigweed plant response rating (0 to 100 scale, 0 is no effect, 100 is complete control)” value (pigweed; Postemergence, 500 g ai/ha) was 0 and the “Plant response rating, Pigweed” value (pigweed; [3]) was 20. The “Plant response rating, Wheat” value (wheat; [4]) was 0, the “Wheat plant response rating (0 to 100 scale, 0 is no effect, 100 is complete control)” value (wheat; 500 g ai/ha) was 20 and the “Plant response rating, Corn” value (corn; [5]) was 0. The “Corn plant response rating (0 to 100 scale, 0 is no effect, 100 is complete control)” value (corn; 500 g ai/ha) was 20, the “Plant response rating, Blackgrass” value (blackgrass; [5]) was 0 and the “Blackgrass plant response rating (0 to 100 scale, 0 is no effect, 100 is complete control)” value (blackgrass; 500 g ai/ha) was 20. For the same molecule, the “Plant response rating, Galium” value (galium; [4]) was 0 and the “Galium plant response rating (0 to 100 scale, 0 is no effect, 100 is complete control)” value (galium; 500 g ai/ha) was 0.

With `CC(C)(C)c1cccc(C2CNC(=O)C2C(=O)Nc2ccccc2F)c1` (stereo not shown) [Compound 347] the “Plant response rating, Barnyardgrass” value (barnyardgrass; [6]) was 50, the “Plant response rating, Barnyardgrass” value (barnyardgrass; [7]) was 50 and the “Plant response rating, Barnyardgrass” value (barnyardgrass; [8]) was 50. The “Barnyardgrass plant response rating” value (barnyardgrass; [9]) was 90, the “Plant response rating, Kochia” value (kochia; [6]) was 0 and the “Plant response rating, Kochia” value (kochia; [8]) was 0. For the same molecule, the “Kochia plant response rating” value (kochia; [9]) was 0, the “Plant response rating, Ragweed” value (ragweed; [6]) was 0 and the “Plant response rating, Ragweed” value (ragweed; [8]) was 0. For the same molecule, the “Ragweed plant response rating” value (ragweed; [9]) was 0, the “Plant response rating, Ryegrass, Italian” value (ryegrass, Italian; [6]) was 0 and the “Plant response rating, Ryegrass, Italian” value (ryegrass, Italian; [8]) was 0. For the same molecule, the “Ryegrass, Italian plant response rating” value (ryegrass, Italian; [9]) was 0, the “Plant response rating, Foxtail, Giant” value (giant foxtail; [6]) was 20 and the “Plant response rating, Foxtail, Giant” value (giant foxtail; [7]) was 20. The “Plant response rating, Foxtail, Giant” value (giant foxtail; [8]) was 20, the “Foxtail, Giant plant response rating” value (giant foxtail; [9]) was 40 and the “Plant response rating, Pigweed” value (pigweed; [6]) was 0. For the same molecule, the “Plant response rating, Pigweed” value (pigweed; [8]) was 0, the “Pigweed plant response rating” value (pigweed; [9]) was 0 and the “Plant response rating, Wheat” value (wheat; [10]) was 0. For the same molecule, the “Plant response rating, Corn” value (corn; [11]) was 0, the “Plant response rating, Corn” value (corn; [12]) was 0 and the “Plant response rating, Blackgrass” value (blackgrass; [11]) was 0. For the same molecule, the “Plant response rating, Blackgrass” value (blackgrass; [12]) was 0 and the “Plant response rating, Galium” value (galium; [10]) was 0.
